From patent US20060240400A1, “High-density cell array board, process for producing the same and method of using the same” (priority 2003, published 2006)

Test system: rat primary hepatic solid tumor cells
Assay: Chemical assay on high-density cell array substrate (cell morphology after microdispensed dichlorobenzene)
Assay type: cell-based
Settings: after 10 minutes, 37° C., 0-4.5 mM in steps of 0.5 mM in 10 pl culture medium, single cells on substrates of Examples 1-5
Method: Poly-N-isopropylacrylamide, polyacrylamide and polydimethylsiloxane were used as cell adhesive polymer, hydrophilic polymer and highly hydrophobic polymer, respectively. These solutions were used for preparing each layer by the procedure described below. First, a solution of N-isopropylacrylamide monomer in isopropyl alcohol at the concentration shown in Table 1 was applied on a polystyrene base in an amount of 0.01 ml/cm^2 in order to prepare a cell adhesive polymer-coated domain. The coating was irradiated with electron beams at a dose of 0.25 MGy to coat the surface of the base with poly-N-isopropylacrylamide. After irradiation, the substrate was thoroughly washed with water and dried to give a substrate having a poly-N-isopropylacrylamide layer. Then, a solution of acrylamide monomer in isopropyl alcohol at the concentration shown in Table 1 was applied on the substrate in an amount of 0.01 ml/cm^2 in order to prepare a cell non-adhesive hydrophilic polymer-coated domain on the preceding layer. The coating was irradiated with electron beams at a dose similar to the value used in the method described above and then washed and dried to give a substrate having a polyacrylamide layer on the poly-N-isopropylacrylamide layer. […]

**Q.** Which “dichlorobenzene concentration in culture medium at which cells were morphologically altered” value does the source give for dichlorobenzene here?
**A.** The value was no less than 2.5 mM.
